The values that follow come from patent publication US20260092071A1, “COMPOUNDS AND COMPOSITIONS AS SMARCA2/4 DEGRADERS AND USES THEREOF” (REGENTS OF THE UNIVERSITY OF MICHIGAN, priority 2022, published 2026).

For this assay, the target named is SMARCA2 (Homo sapiens, UniProt P51531). Nature of the assay: HiBiT assay for protein degradation, Hela SMARCA2-HiBiT cells (A series). Format: cell-based. More on the design: Hela cells were genetically modified via CRISPR/Cas9 to fuse HiBiT to the carboxy terminus of SMARCA2; host or cells: HeLa (CRISPR/Cas9 HiBiT knock-in). The following applies: Hela SMARCA2-HiBiT cells, 24 hours treatment; for Dmax: read-out: SMARC A2 Hela HiBit Dmax (%); for DC50: read-out: SMARC A2 Hela HiBit DC50. As to the method:
Hela cells were genetically modified via CRISPR/Cas9 to fuse HiBiT to the carboxy terminus of SMARCA2 (Promega CS302365) or SMARCA4 (Promega CS3023225). Cells were cultured in DMEM containing 10% FBS and 1% (Vol:Vol) penicillin-streptomycin. […] At the end of experiment, levels of SMARCA2 or SMARCA4 expression were assessed with Nano-Glo® HiBiT Lytic Detection Assay (Promega N3050). IC50 was obtained using the GraphPad Prism data analysis software.
A general note: HiBiT is a short tag that completes a luciferase, so light tracks the accessible tagged protein.

Where only a bound is given, the exact number is not on record here.

Sequence of SMARCA2 (P51531 whole entry): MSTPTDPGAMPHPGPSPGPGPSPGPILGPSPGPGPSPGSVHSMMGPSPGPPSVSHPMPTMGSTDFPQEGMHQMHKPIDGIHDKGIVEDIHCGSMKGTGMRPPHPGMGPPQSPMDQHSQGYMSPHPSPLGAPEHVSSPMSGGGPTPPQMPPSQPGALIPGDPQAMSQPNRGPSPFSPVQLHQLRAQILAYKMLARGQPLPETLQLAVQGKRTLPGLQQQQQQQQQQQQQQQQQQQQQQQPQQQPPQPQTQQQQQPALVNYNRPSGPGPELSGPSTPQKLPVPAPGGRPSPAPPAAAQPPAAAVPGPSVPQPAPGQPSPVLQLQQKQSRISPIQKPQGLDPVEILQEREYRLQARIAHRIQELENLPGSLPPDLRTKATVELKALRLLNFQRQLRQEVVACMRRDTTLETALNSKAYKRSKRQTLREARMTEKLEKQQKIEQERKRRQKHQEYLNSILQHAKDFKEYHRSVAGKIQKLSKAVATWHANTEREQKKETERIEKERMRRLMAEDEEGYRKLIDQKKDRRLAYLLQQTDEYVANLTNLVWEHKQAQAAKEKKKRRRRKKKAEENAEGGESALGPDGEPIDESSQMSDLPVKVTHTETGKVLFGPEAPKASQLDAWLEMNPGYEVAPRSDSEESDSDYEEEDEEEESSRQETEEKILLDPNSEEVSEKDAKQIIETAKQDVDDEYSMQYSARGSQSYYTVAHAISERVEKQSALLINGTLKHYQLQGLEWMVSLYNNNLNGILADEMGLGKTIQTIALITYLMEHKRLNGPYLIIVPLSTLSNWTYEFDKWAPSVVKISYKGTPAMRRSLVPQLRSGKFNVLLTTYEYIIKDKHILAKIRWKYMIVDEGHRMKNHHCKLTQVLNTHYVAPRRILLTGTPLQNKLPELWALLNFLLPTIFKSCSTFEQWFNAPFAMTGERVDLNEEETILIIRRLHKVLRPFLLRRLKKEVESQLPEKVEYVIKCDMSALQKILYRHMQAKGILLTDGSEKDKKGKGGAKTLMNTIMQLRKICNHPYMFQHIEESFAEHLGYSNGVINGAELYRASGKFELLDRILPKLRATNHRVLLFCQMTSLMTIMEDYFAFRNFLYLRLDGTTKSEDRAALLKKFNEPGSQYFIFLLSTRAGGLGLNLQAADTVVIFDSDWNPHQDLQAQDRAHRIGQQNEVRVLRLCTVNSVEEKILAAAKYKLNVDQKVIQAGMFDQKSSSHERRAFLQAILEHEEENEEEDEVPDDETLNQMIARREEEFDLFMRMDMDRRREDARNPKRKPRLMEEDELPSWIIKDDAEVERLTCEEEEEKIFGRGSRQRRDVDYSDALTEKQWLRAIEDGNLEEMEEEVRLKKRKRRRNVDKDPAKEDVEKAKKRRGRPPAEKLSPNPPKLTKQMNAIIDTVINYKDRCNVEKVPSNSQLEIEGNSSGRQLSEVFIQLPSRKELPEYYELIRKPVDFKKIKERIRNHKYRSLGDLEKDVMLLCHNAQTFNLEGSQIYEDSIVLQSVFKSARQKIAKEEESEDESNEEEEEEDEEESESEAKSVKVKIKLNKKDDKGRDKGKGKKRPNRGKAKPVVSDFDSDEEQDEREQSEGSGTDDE

Regarding `Cc1ncsc1-c1ccc([C@H](CN2CCOCC2)NC(=O)[C@@H]2C[C@@H](O)CN2C(=O)[C@@H](n2cc([C@H]3CC[C@H](CN4CCC(c5ccc6c(n5)-n5c(nc(=O)c7c(Br)cccc75)C65CCCCC5)CC4)CC3)nn2)C(C)(C)C)cc1` [Compound A52, (2S,4R)-1-((S)-2-(4-((1r,4S)-4-((4-(4′-bromo-5′-oxo-5′H-spiro[cyclohexane-1,7′-pyrido[3′,2′: 4,5]pyrrolo[1,2-a]quinazolin]-10′-yl)piperidin-1-yl)methyl)cyclohexyl)-1H-1,2,3-triazol-1-yl)-3,3-dimethylbutanoyl)-4-hydroxy-N—((R)-1-(4-(4-methylthiazol-5-yl)phenyl)-2-morpholinoethyl)pyrrolidine-2-carboxamide], the Dmax lay within 70 to 90% and the DC50 is less than 100 nM. For `Cc1ncsc1-c1ccc([C@H](CN2CCOCC2)NC(=O)[C@@H]2C[C@@H](O)CN2C(=O)[C@@H](n2cc([C@H]3CC[C@H](CN4CCC(c5ccc6c(c5)-n5c(nc(=O)c7c(Br)cccc75)C65CCCCC5)CC4)CC3)nn2)C(C)(C)C)cc1` [Compound A69, (2S,4R)-1-((S)-2-(4-((1r,4S)-4-((4-(4′-bromo-5′-oxo-5′H-spiro[cyclohexane-1,7′-indolo[1,2-a]quinazolin]-10′-yl)piperidin-1-yl)methyl)cyclohexyl)-1H-1,2,3-triazol-1-yl)-3,3-dimethylbutanoyl)-4-hydroxy-N—((R)-1-(4-(4-methylthiazol-5-yl)phenyl)-2-morpholinoethyl)pyrrolidine-2-carboxamide], the maximal degradation (Dmax) was more than 90% and the DC50 is less than 100 nM. The corresponding values for `Cc1ncsc1-c1ccc([C@H](CN2CCOCC2)NC(=O)[C@@H]2C[C@@H](O)CN2C(=O)[C@@H](n2cc([C@H]3CC[C@H](CN4CCC(c5ccc6c(n5)-n5c(nc(=O)c7c(Cl)cccc75)C65CCCCC5)CC4)CC3)nn2)C(C)(C)C)cc1` [Compound A77, (2S,4R)-1-((S)-2-(4-((1r,4S)-4-((4-(4′-chloro-5′-oxo-5′H-spiro[cyclohexane-1,7′-pyrido[3′,2′: 4,5]pyrrolo[1,2-a]quinazolin]-10′-yl)piperidin-1-yl)methyl)cyclohexyl)-1H-1,2,3-triazol-1-yl)-3,3-dimethylbutanoyl)-4-hydroxy-N—((R)-1-(4-(4-methylthiazol-5-yl)phenyl)-2-morpholinoethyl)pyrrolidine-2-carboxamide] are 70 to 90% and 10 to 100 nM. The corresponding values for `Cc1ncsc1-c1ccc([C@H](CCN2CC(C)(F)C2)NC(=O)[C@@H]2C[C@@H](O)CN2C(=O)[C@@H](n2cc([C@H]3CC[C@H](CN4CCC(c5ccc6c(c5)-n5c(nc(=O)c7c(Cl)cccc75)C65CCCCC5)CC4)CC3)nn2)C(C)(C)C)cc1` [Compound A79, (2S,4R)-1-((S)-2-(4-((1r,4S)-4-((4-(4′-chloro-5′-oxo-5′H-spiro[cyclohexane-1,7′-indolo[1,2-a]quinazolin]-10′-yl)piperidin-1-yl)methyl)cyclohexyl)-1H-1,2,3-triazol-1-yl)-3,3-dimethylbutanoyl)-N—((S)-3-(3-fluoro-3-methylazetidin-1-yl)-1-(4-(4-methylthiazol-5-yl)phenyl)propyl)-4-hydroxypyrrolidine-2-carboxamide] are 70 to 90% and less than 10 nM. The corresponding values for `Cc1ncsc1-c1ccc([C@H](CCN2CC(C)(O)C2)NC(=O)[C@@H]2C[C@@H](O)CN2C(=O)[C@@H](n2cc([C@H]3CC[C@H](CN4CCC(c5ccc6c(c5)-n5c(nc(=O)c7c(Cl)cccc75)C65CCCCC5)CC4)CC3)nn2)C(C)(C)C)cc1` [Compound A80, (2S,4R)-1-((S)-2-(4-((1r,4S)-4-((4-(4′-chloro-5′-oxo-5′H-spiro[cyclohexane-1,7′-indolo[1,2-a]quinazolin]-10′-yl)piperidin-1-yl)methyl)cyclohexyl)-1H-1,2,3-triazol-1-yl)-3,3-dimethylbutanoyl)-4-hydroxy-N—((S)-3-(3-hydroxy-3-methylazetidin-1-yl)-1-(4-(4-methylthiazol-5-yl)phenyl)propyl)pyrrolidine-2-carboxamide] are 70 to 90% and 10 to 100 nM. On to `Cc1ncsc1-c1ccc([C@H](CCN2CCOCC2)NC(=O)[C@@H]2C[C@@H](O)CN2C(=O)[C@@H](n2cc([C@H]3CC[C@H](CN4CCC(c5ccc6c(c5)-n5c(nc(=O)c7c(Cl)cccc75)C65CCCCC5)CC4)CC3)nn2)C(C)(C)C)cc1` [Compound A81, (2S,4R)-1-((S)-2-(4-((1r,4S)-4-((4-(4′-chloro-5′-oxo-5′H-spiro[cyclohexane-1,7′-indolo[1,2-a]quinazolin]-10′-yl)piperidin-1-yl)methyl)cyclohexyl)-1H-1,2,3-triazol-1-yl)-3,3-dimethylbutanoyl)-4-hydroxy-N—((S)-1-(4-(4-methylthiazol-5-yl)phenyl)-3-morpholinopropyl)pyrrolidine-2-carboxamide], for which the Dmax is more than 90% and the half-maximal degradation concentration (DC50) is less than 10 nM. On to `COCCOCCOCC[C@H](NC(=O)[C@@H]1C[C@@H](O)CN1C(=O)[C@@H](n1cc([C@H]2CC[C@H](CN3CCC(c4ccc5c(c4)-n4c(nc(=O)c6c(Cl)cccc64)C54CCCCC4)CC3)CC2)nn1)C(C)(C)C)c1ccc(-c2scnc2C)cc1` [Compound A82, (2S,4R)-1-((S)-2-(4-((1r,4S)-4-((4-(4′-chloro-5′-oxo-5′H-spiro[cyclohexane-1,7′-indolo[1,2-a]quinazolin]-10′-yl)piperidin-1-yl)methyl)cyclohexyl)-1H-1,2,3-triazol-1-yl)-3,3-dimethylbutanoyl)-4-hydroxy-N—((S)-3-(2-(2-methoxyethoxy)ethoxy)-1-(4-(4-methylthiazol-5-yl)phenyl)propyl)pyrrolidine-2-carboxamide], for which the greatest degradation seen (Dmax) is more than 90% and the DC50 is less than 10 nM.

Consider `Cc1ncsc1-c1ccc([C@H](CN2CCOCC2)NC(=O)[C@@H]2C[C@@H](O)CN2C(=O)[C@@H](n2cc(C3CCN(CC4CCN(c5ccc6c(c5)-n5c(nc(=O)c7c(Cl)cccc75)C65CCCCC5)CC4)CC3)nn2)C(C)(C)C)cc1` [Compound A168, (2S,4R)-1-((S)-2-(4-(1-((1-(4′-chloro-5′-oxo-5′H-spiro[cyclohexane-1,7′-indolo[1,2-a]quinazolin]-10′-yl)piperidin-4-yl)methyl)piperidin-4-yl)-1H-1,2,3-triazol-1-yl)-3,3-dimethylbutanoyl)-4-hydroxy-N—((R)-1-(4-(4-methylthiazol-5-yl)phenyl)-2-morpholinoethyl)pyrrolidine-2-carboxamide], for which the Dmax is less than 50% and the DC50 is more than 1000 nM. Take `Cc1ncsc1-c1ccc([C@H](CN2CCOCC2)NC(=O)[C@@H]2C[C@@H](O)CN2C(=O)[C@@H](n2cc(C3CCN(CC4CCN(c5ccc6c(c5)-n5c(nc(=O)c7c(Br)cccc75)C65CCCCC5)CC4)CC3)nn2)C(C)(C)C)cc1` [Compound A169, (2S,4R)-1-((S)-2-(4-(1-((1-(4′-bromo-5′-oxo-5′H-spiro[cyclohexane-1,7′-indolo[1,2-a]quinazolin]-10′-yl)piperidin-4-yl)methyl)piperidin-4-yl)-1H-1,2,3-triazol-1-yl)-3,3-dimethylbutanoyl)-4-hydroxy-N—((R)-1-(4-(4-methylthiazol-5-yl)phenyl)-2-morpholinoethyl)pyrrolidine-2-carboxamide]: the DC50 is more than 1000 nM. As to `Cc1ncsc1-c1ccc([C@H](CN2CCOCC2)NC(=O)[C@@H]2C[C@@H](O)CN2C(=O)[C@@H](n2cc(C3CCC(CN4CCC(c5ccc6c(c5)-n5c(nc(=O)c7ccccc75)C65CCCCC5)CC4)CC3)nn2)C(C)(C)C)cc1` (stereo partly drawn) [Compound A170, (2S,4R)-1-((S)-3,3-dimethyl-2-(4-(4-((4-(5′-oxo-5′H-spiro[cyclohexane-1,7′-indolo[1,2-a]quinazolin]-10′-yl)piperidin-1-yl)methyl)cyclohexyl)-1H-1,2,3-triazol-1-yl)butanoyl)-4-hydroxy-N—((R)-1-(4-(4-methylthiazol-5-yl)phenyl)-2-morpholinoethyl)pyrrolidine-2-carboxamide], the Dmax was less than 50% and the DC50 is more than 1000 nM.

One may read the Dmax as the largest share of the target that was removed. The term DC50 denotes the midpoint of the concentration-degradation curve.
